Assay results as given in ChEMBL document CHEMBL1201862, “PubChem BioAssay data set” (2004).
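Assay format: 96-well plates, 48-hour exposure. Here, GI50 denotes the concentration required for 50% inhibition of growth.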 Active and inactive are the calls of the source. Cut-off read from the data, not from the text of the source: active = GI50 up to about 1.1 µM and inactive = higher.

Key:
Assay in all cases: NCI anticancer screen, dose series, 48 h
[1] = tested on: DLD-1
[2] = tested on: DMS-273
[3] = tested on: SNB-78
[4] = tested on: XF498
[5] = tested on: RXF 631
[6] = tested on: DMS-114
[7] = tested on: LXFL 529
[8] = tested on: BT-549

Measured: GI50

CCOCN1COCN(C)C1=O
inactive: [1] > 100 µM | [2] > 100 µM | [3] > 100 µM | [4] > 100 µM | [5] > 100 µM

CCN(CC)/[N+]([O-])=N/OCC(C)O (centres undefined)
inactive: [2] > 100 µM | [3] > 100 µM | [4] > 100 µM | [6] > 100 µM | [5] > 100 µM

CC1CCC[P+](Cc2ccccc2)(c2ccccc2)CC1 (centres undefined)
inactive: [1] > 100 µM | [2] 33.6 µM | [3] 48.3 µM | [7] 15.8 µM | [4] 21.4 µM | [6] 18.5 µM | [5] > 100 µM

CCC1C2C=CC(CC2)N1S(=O)(=O)c1ccc(C)cc1 (centres undefined)
inactive: [2] 18.2 µM | [7] 17.3 µM | [6] 20.3 µM | [5] 27.4 µM

O=C(N/C(=C\c1cc(Cl)ccc1Cl)c1nc2ccccc2[nH]1)c1ccccc1
inactive: [1] 17.1 µM | [3] 45.4 µM | [7] 24.5 µM | [4] 26.9 µM | [6] 35.3 µM | [5] 22.3 µM

O=C(O/C(=C(/N=N/c1ccccc1)c1ccccc1)c1ccccc1)c1ccccc1
inactive: [1] 89.1 µM | [3] > 100 µM | [7] > 100 µM | [4] > 100 µM | [6] > 100 µM | [5] 16.7 µM

CCCN(CCCC(NC(C)=O)C(=O)NCc1ccccc1)C(=O)N(C)N=O (centres undefined)
inactive: [1] > 100 µM | [2] > 100 µM | [3] > 100 µM | [7] > 100 µM | [4] > 100 µM | [6] > 100 µM

CCN(CC)c1ccc2c(c1)Oc1ccc(N(CC)CC)cc1C21Oc2ccccc2-c2c1c1ccccc1n2CC (centres undefined)
active: [4] 1.06 µM | [6] 0.506 µM
inactive: [1] 3.48 µM | [2] 3.4 µM | [3] 7.36 µM | [7] 3.36 µM | [5] 6.1 µM

COC1OC(CO)C(O)C1N (centres undefined)
inactive: [1] > 100 µM | [3] > 100 µM | [7] > 100 µM | [6] > 100 µM | [5] > 100 µM

ClC[Si]12OCCN(CCO1)CCO2
inactive: [1] > 100 µM | [2] > 100 µM | [3] > 100 µM | [7] > 100 µM | [6] > 100 µM | [5] > 100 µM

COc1cc2c(c(OC)c1OC)-c1ccc(SC)c(=O)cc1C(CC(=O)Oc1cccc([N+](=O)[O-])c1)C2 (centres undefined)
active: [1] 0.933 µM | [2] 0.364 µM | [3] 0.481 µM | [7] 0.619 µM | [4] 0.74 µM | [6] 0.312 µM | [5] 0.502 µM

NNC(=O)N/N=C1\C(=O)N(c2nccs2)C(=O)C(=O)C1c1nc2ccccc2s1 (centres undefined)
inactive: [1] > 100 µM | [2] > 100 µM | [3] > 100 µM | [7] > 100 µM | [4] > 100 µM | [6] > 100 µM | [5] > 100 µM

Cc1c(Cl)cccc1NC(=O)C(=O)C(C(=O)c1ccccc1-c1ccccc1)C1OC(=O)c2ccccc21 (centres undefined)
inactive: [1] 22.8 µM | [2] 24.4 µM | [3] 22.2 µM | [7] 14 µM | [4] 11.5 µM | [6] 16 µM | [5] 23.7 µM

CN1CCC(O)C(CNC23CC4CC(CC(C4)C2)C3)C1 (centres undefined)
inactive: [1] > 100 µM | [2] > 100 µM | [3] > 100 µM | [7] > 100 µM | [4] > 100 µM | [6] > 100 µM | [5] > 100 µM

Cc1cc(N(CCC#N)CCC#N)ccc1/C=C1N=C(/C=C\c2ccccc2)N(c2ccc(C(=O)O)cc2)C\1=O
inactive: [1] > 100 µM | [3] > 100 µM | [7] > 100 µM | [6] > 100 µM | [5] > 100 µM

C=C1CC2CC[C@@]34C[C@H]5O[C@@H]6C(O[C@H]7CC[C@H](CC(=O)OC8[C@H](C)C9OC%10C[C@]%11(C[C@@H]%12O[C@]%13(C[C@H](C)[C@@H]%14O[C@H]([C@H](O)C[C@H](O)CO)C[C@@H]%14O%13)C[C@H](C)[C@@H]%12O%11)OC%10CC9O[C@H]8C[C@H]8O[C@H](CC[C@@H]1O2)C[C@@H](C)C8=C)O[C@H]7[C@@H]6O3)[C@@H]5O4 (some centres undefined)
inactive: [8] 1.31 µM
active: [1] 0.0018 µM | [2] 0.000538 µM | [3] 0.00261 µM | [7] 0.00129 µM | [4] 0.00123 µM | [6] 0.00037 µM

COc1ccc(/C=C/c2cc(OC)c(OC)c(OC)c2)cc1
active: [1] 0.897 µM | [4] 0.592 µM
inactive: [2] 2.8 µM | [3] 17.8 µM | [7] 31.8 µM | [6] 27 µM | [5] 3.73 µM
